These results are taken from article PMC8301602 (AIChE journal. American Institute of Chemical Engineers, 2020).

The Kd is the constant that tells how readily two partners part at equilibrium. A lower Kd goes with a tighter complex. The term stoichiometry N denotes the number of molecules, sites or subunits per partner or assembly.

For one experiment, the target named is iLOV (Arabidopsis thaliana, UniProt P93025, S394T/S409G/C426A/I452T/F470L/M475V). As to the kind of experiment: fluorescence titration of apo protein, emission at […] nm. The experiment is classed as binding. Particulars: PBS; noncooperative 1:1 fit, protein concentration fitted.
Another experiment has as its target T1, EcFbFP (Bacillus subtilis, UniProt O34627, C62A).
T1 sequence (O34627 1-137 C62A limits assumed): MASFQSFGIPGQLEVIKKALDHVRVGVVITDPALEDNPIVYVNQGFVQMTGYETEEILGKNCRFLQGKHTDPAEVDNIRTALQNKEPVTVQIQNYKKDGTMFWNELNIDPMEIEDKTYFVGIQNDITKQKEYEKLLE
The description is as above. It counts as binding.

Experiment [1] addresses EcFbFP (B. subtilis). As to the kind of experiment: SEC. In general terms: Size exclusion chromatography separates by hydrodynamic size, large species first.
Experiment [2] has as its target EcFbFP (B. subtilis). As to the kind of experiment: SEC. This is another data set of the same source.

Where two headings read alike, the source gives them in different places.

iLOV, sequence (P93025 387-496 S394T/S409G/C426A/I452T/F470L/M475V limits assumed): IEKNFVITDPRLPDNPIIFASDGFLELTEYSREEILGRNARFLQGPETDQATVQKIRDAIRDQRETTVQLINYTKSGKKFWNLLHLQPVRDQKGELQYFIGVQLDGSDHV

In the case of `Cc1cc2nc3c(=O)[nH]c(=O)nc-3n(C[C@H](O)[C@H](O)[C@H](O)COP(=O)(O)OP(=O)(O)OC[C@H]3O[C@@H](n4cnc5c(N)ncnc54)[C@H](O)[C@@H]3O)c2cc1C` [FAD], the results for the Kd at iLOV and on EcFbFP were 180 ± 30 nM and 130 ± 20 nM, respectively.

For `Cc1cc2nc3c(=O)[nH]c(=O)nc-3n(C[C@H](O)[C@H](O)[C@H](O)COP(=O)(O)O)c2cc1C` [FMN], the Kd turned out to be 230 ± 20 nM at iLOV and 180 ± 30 nM on EcFbFP.

Regarding `Cc1cc2nc3c(=O)[nH]c(=O)nc-3n(C[C@H](O)[C@H](O)[C@H](O)CO)c2cc1C` [riboflavin], the results for the Kd at iLOV and on EcFbFP were 890 ± 170 nM and 760 ± 150 nM, respectively.

EcFbFP: the stoichiometry N with EcFbFP (B. subtilis) [1] and with EcFbFP (B. subtilis) [2] was 2 in each case.
